This experiment addresses T1, HDAC6 (Homo sapiens, UniProt Q9UBN7).
T1 sequence (Q9UBN7 1-1215): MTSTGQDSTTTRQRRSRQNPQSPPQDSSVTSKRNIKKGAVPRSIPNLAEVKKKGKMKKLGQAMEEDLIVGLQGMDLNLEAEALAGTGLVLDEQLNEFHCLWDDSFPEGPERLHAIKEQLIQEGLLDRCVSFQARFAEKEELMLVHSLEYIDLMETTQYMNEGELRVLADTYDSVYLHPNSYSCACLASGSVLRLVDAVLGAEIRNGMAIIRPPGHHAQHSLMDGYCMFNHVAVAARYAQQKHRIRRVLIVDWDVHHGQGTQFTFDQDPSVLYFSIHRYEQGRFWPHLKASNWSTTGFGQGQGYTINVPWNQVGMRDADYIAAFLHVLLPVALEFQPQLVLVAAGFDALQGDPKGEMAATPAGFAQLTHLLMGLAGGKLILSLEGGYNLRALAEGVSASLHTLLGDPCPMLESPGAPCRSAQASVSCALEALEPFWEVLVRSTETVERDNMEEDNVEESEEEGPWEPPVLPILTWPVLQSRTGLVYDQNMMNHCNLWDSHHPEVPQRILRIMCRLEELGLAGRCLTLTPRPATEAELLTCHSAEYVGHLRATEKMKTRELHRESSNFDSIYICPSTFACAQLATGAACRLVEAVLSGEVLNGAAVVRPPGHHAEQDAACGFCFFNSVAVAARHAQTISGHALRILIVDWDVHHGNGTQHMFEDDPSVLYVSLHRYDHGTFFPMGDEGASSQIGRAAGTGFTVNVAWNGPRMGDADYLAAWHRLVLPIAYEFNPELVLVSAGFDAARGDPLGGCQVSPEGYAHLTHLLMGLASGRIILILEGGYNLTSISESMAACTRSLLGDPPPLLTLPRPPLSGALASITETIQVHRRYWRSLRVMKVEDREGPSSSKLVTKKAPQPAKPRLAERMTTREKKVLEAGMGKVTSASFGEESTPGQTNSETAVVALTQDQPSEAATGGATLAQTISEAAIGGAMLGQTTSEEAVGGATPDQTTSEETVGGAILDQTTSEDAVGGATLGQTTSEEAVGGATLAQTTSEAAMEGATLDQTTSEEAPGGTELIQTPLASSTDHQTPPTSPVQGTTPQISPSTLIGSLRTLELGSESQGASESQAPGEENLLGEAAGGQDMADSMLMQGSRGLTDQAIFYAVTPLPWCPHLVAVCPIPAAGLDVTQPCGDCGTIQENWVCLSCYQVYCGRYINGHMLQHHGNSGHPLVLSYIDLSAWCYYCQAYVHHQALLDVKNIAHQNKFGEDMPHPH
Kind of experiment: HDAC isoform inhibition (BPS Bioscience).

As a reminder, the IC50 is the concentration at which inhibition is half-maximal.

Molecules are shown by their SMILES. Where two headings read alike, the source gives them in different places.

`O=C(CCCCCCn1cc(-c2ccc3cc(O[C@H]4O[C@H](CO)[C@@H](O)[C@H](O)[C@H]4O)ccc3c2)nn1)NO` [STR-V-114]: the IC50 (read-out: HDAC6 IC50, Table S1) amounted to 4.5 nM.
`O=C(CCCCCCn1cc(-c2ccc(O[C@H]3O[C@H](CO)[C@@H](O)[C@H](O)[C@H]3O)cc2)nn1)NO` [STR-V-53] displayed an IC50 of 3.43 nM.
`O=C(CCCCCCn1cc(-c2ccc(O[C@@H]3O[C@H](CO)[C@@H](O)[C@H](O)[C@H]3O)cc2)nn1)NO` [STR-I-195]: under “read-out: HDAC6 IC50, Table S1”, the IC50 amounted to 2.51 nM.

For the origin of these results see article PMC11475281, “A Novel Liver Cancer-Selective Histone Deacetylase Inhibitor Is Effective against Hepatocellular Carcinoma and Induces Durable Responses with Immunotherapy” (ACS Pharmacology & Translational Science, 2024).
